Experimental data reported in patent US20190336602A1, “STERILISATION OF S-NITROSOTHIOLS” (Salupont Consulting Ltd., priority 2015, published 2019).
Where two headings read alike, the source gives them in different places.

What was measured:
[1] = liquid formulation, after at least 8-12 hours at 4 °C to 25 °C (Looker et al., 2008); cited from earlier work
[2] = e-beam sterilisation of S-nitrosoglutathione at unconstrained temperature (Example 1), HPLC purity and impurities vs non-irradiated control; type: physicochemical; conditions: ~27.5 °C
Experimental: S-nitrosoglutathione granule samples from a single manufacturing batch, contained in glass vials (up to 250 mg/vial), were stored before sterilisation surrounded by dry ice (solid CO2) at about −80° C. The matching controls were not irradiated but underwent similar conditions of storage and thermal management before, during and after irradiation, as compared with the S-nitrosoglutathione vials that were irradiated. The control purity levels of the S-nitrosoglutathione, and the level of specific impurities glutathione (GSH) and oxidised glutathione (GSSG) content and total impurities content, were analysed. Vials were exposed to either electron beam (e-beam) irradiations or to gamma irradiations. The vials were removed from the dry ice container and sterilised via two radiation dose conditions (15 kGy and 35 kGy) described below under higher temperature conditions (with surrounding air temperature in the range about 18 to 24° C. and with the temperature of the vials free to fluctuate to higher temperature). After irradiation, the vials were immediately surrounded by dry ice at about −80° C. and analysed for post-sterilisation determination of any changes in purity against the control. The e-beam radiation was performed using a moving carrier system set up for delivering a 15 kGy dose and a 35 kGy dose. The 15 kGy radiation dose lasted about 10-15 minutes and the temperature reached approximately equal to 27.5° C. (designated 27.5° C. in the Tables and Figs.). The 35 kGy radiation dose lasted about 30 minutes and the temperature reached approximately equal to 27.5° C. (designated ˜27.5° C. in the Tables and the Figs.). The radiation doses were measured by conventional dosimeters.

[3] = cited from earlier work
[4] = gamma sterilisation of S-nitrosoglutathione at constrained temperatures (Example 2), HPLC purity and impurities vs non-irradiated control; type: physicochemical
Experimental: The experimental protocol for this Example aims to test in a controlled manner the effects on purity of a sterilizing irradiation temperature (a) at about −80° C. and (b) under positive cooling (with surrounding air temperature in the range about 18 to 24° C. and with the temperature of the vials controlled). The same radiation doses as described for Example 1 were applied. For this Example, S-nitrosoglutathione granule samples, from the same single manufacturing batch as in Example 1, contained in amber glass vials (100 mg/vial) were stored before sterilisation at about −80° C. The irradiation process at −80° C. was achieved by the presence of dry ice, which was placed to ensure low temperature of the vials but without influencing the radiation dose delivery characteristics. The matching controls were not irradiated but underwent similar conditions of thermal management before, during and after irradiation, as compared with the S-nitrosoglutathione vials that were irradiated. The gamma radiation was performed using gamma radiation emitted from cobalt-60 radioactive sources. The S-nitrosoglutathione vials were stored at −80° C. in a freezer and transferred to a dry ice container before irradiation. Before the start of irradiation, the S-nitrosoglutathione vials destined for irradiation at ambient temperature (and control vials) were removed from the −80° C. freezer and transferred to a location where the surrounding temperature was controlled at 18° C. Individual low-temperature containers were used for the samples designated for each target dose and condition of thermal management, as described above in relation to the e-beam arm of this Example. The secondary packaging was placed in the lateral centre at the bottom of first low-temperature container, with the vials oriented upright. […] The arrows marked “γ” show the direction of the radiation. For the S-nitrosoglutathione product requiring cold chain management, dry ice was placed at each lateral short side of the low-temperature container to ensure a cold chain was maintained during the irradiation process. Each low-temperature container was placed in the lateral centre of an irradiation container. The 15 kGy radiation dose lasted 2 hours and 8 minutes whereas the 35 kGy dose lasted about 5 hours and 8 minutes. When necessary, the dry ice was replenished before execution of the second irradiation. Following completion of the irradiation process, the irradiated S-nitrosoglutathione products were placed in the designated −80° C. freezer. The control samples were moved from the 18° C. controlled location to the designated −80° C. freezer upon completion of the second irradiation. The time of transfer was recorded.

[5] = e-beam sterilisation of S-nitrosoglutathione at constrained temperatures (Example 2), HPLC purity and impurities vs non-irradiated control; type: physicochemical; conditions: few sec.
Experimental: The experimental protocol for this Example aims to test in a controlled manner the effects on purity of a sterilizing irradiation temperature (a) at about −80° C. and (b) under positive cooling (with surrounding air temperature in the range about 18 to 24° C. and with the temperature of the vials controlled). The same radiation doses as described for Example 1 were applied. For this Example, S-nitrosoglutathione granule samples, from the same single manufacturing batch as in Example 1, contained in amber glass vials (100 mg/vial) were stored before sterilisation at about −80° C. The irradiation process at −80° C. was achieved by the presence of dry ice, which was placed to ensure low temperature of the vials but without influencing the radiation dose delivery characteristics. The matching controls were not irradiated but underwent similar conditions of thermal management before, during and after irradiation, as compared with the S-nitrosoglutathione vials that were irradiated. The e-beam radiation was performed using a moving carrier system. The S-nitrosoglutathione vials were stored at −80° C. freezer and transferred to a dry ice container before irradiation. Before the start of irradiation the S-nitrosoglutathione vials destined for irradiation at ambient temperature (and control vials) were removed from the −80° C. freezer and transferred to a location where the surrounding air temperature is controlled at 18° C. Individual low-temperature containers were used for the vials designated for each target dose and condition of thermal management. A secondary packaging box was placed in the lateral centre at the bottom of the first low-temperature container, with the vials oriented upright. The position of each vial in the configuration was documented. The vials were always irradiated from the same side. […] The arrows marked “e” show the direction of the radiation. For the S-nitrosoglutathione vials requiring cold chain management, dry ice was placed at each lateral short side of the container to ensure a cold chain was maintained during the irradiation process. Each container was placed in an irradiation container. Both the 15 kGy e-beam and 35 kGy radiation doses lasted a few seconds. Following completion of the desired irradiation process, the irradiated S-nitrosoglutathione containing vials and correspondent controls were stored at −80° C. in a freezer for subsequent analysis.

[6] = gamma sterilisation of S-nitrosoglutathione at unconstrained temperature (Example 1), HPLC purity and impurities vs non-irradiated control; type: physicochemical
Experimental: S-nitrosoglutathione granule samples from a single manufacturing batch, contained in glass vials (up to 250 mg/vial), were stored before sterilisation surrounded by dry ice (solid CO2) at about −80° C. The matching controls were not irradiated but underwent similar conditions of storage and thermal management before, during and after irradiation, as compared with the S-nitrosoglutathione vials that were irradiated. The control purity levels of the S-nitrosoglutathione, and the level of specific impurities glutathione (GSH) and oxidised glutathione (GSSG) content and total impurities content, were analysed. Vials were exposed to either electron beam (e-beam) irradiations or to gamma irradiations. The vials were removed from the dry ice container and sterilised via two radiation dose conditions (15 kGy and 35 kGy) described below under higher temperature conditions (with surrounding air temperature in the range about 18 to 24° C. and with the temperature of the vials free to fluctuate to higher temperature). After irradiation, the vials were immediately surrounded by dry ice at about −80° C. and analysed for post-sterilisation determination of any changes in purity against the control. The gamma radiation was performed using a moving carrier system set up for delivering a 15 kGy dose and a 35 kGy dose. The 15 kGy dose radiation lasted about 8-10 hours and the temperature reached up to 40° C. The 35 kGy dose radiation lasted about 18-24 hours, with a temperature reaching up to 60° C. The radiation doses received were measured by conventional dosimeters.

- GSH impurity (% unit change) ([2]; 15 kGy, 10-15 minutes): 0.17%
- GSNO purity (decrease % of control) ([2]; 15 kGy, 10-15 minutes): −0.55%
- GSSH impurity (% unit change) ([2]; 15 kGy, 10-15 minutes): 0.11%
- Total impurities (% unit changes) ([2]; 15 kGy, 10-15 minutes): 0.53%
- GSH impurity (% unit change) ([2]; 35 kGy, ~30 minutes): 0.36%
- GSNO purity (decrease % of control) ([2]; 35 kGy, ~30 minutes): −1.37%
- GSSH impurity (% unit change) ([2]; 35 kGy, ~30 minutes): 0.32%
- Total impurities (% unit changes) ([2]; 35 kGy, ~30 minutes): 1.26%
- GSH impurity (% unit change) ([4]; 15 kGy, ~2 h, <27.5 °C): 0.17%
- GSNO purity (decrease % of control) ([4]; 15 kGy, ~2 h, <27.5 °C): −0.67%
- GSSH impurity (% unit change) ([4]; 15 kGy, ~2 h, <27.5 °C): 0.14%
- Total impurities (% unit changes) ([4]; 15 kGy, ~2 h, <27.5 °C): 0.63%
- GSH impurity (% unit change) ([4]; 15 kGy, ~2 h, −80 °C): 0.11%
- GSNO purity (decrease % of control) ([4]; 15 kGy, ~2 h, −80 °C): −0.26%
- GSSH impurity (% unit change) ([4]; 15 kGy, ~2 h, −80 °C): 0.11%
- Total impurities (% unit changes) ([4]; 15 kGy, ~2 h, −80 °C): 0.25%
- GSH impurity (% unit change) ([4]; 35 kGy, ~5 h, <32.5 °C): 0.43%
- GSNO purity (decrease % of control) ([4]; 35 kGy, ~5 h, <32.5 °C): −2.2%
- GSSH impurity (% unit change) ([4]; 35 kGy, ~5 h, <32.5 °C): 0.36%
- Total impurities (% unit changes) ([4]; 35 kGy, ~5 h, <32.5 °C): 2.11%
- GSH impurity (% unit change) ([4]; 35 kGy, ~5 h, −80 °C): 0.29%
- GSNO purity (decrease % of control) ([4]; 35 kGy, ~5 h, −80 °C): −1.01%
- GSSH impurity (% unit change) ([4]; 35 kGy, ~5 h, −80 °C): 0.36%
- Total impurities (% unit changes) ([4]; 35 kGy, ~5 h, −80 °C): 0.96%
- GSH impurity (% unit change) ([5]; 15 kGy, <27.5 °C): 0.13%
- GSNO purity (decrease % of control) ([5]; 15 kGy, <27.5 °C): −0.28%
- GSSH impurity (% unit change) ([5]; 15 kGy, <27.5 °C): 0.13%
- Total impurities (% unit changes) ([5]; 15 kGy, <27.5 °C): 0.27%
- GSH impurity (% unit change) ([5]; 15 kGy, −80 °C): 0.10%
- GSNO purity (decrease % of control) ([5]; 15 kGy, −80 °C): −0.16%
- GSSH impurity (% unit change) ([5]; 15 kGy, −80 °C): 0.10%
- Total impurities (% unit changes) ([5]; 15 kGy, −80 °C): 0.16%
- GSH impurity (% unit change) ([5]; 35 kGy, <27.5 °C): 0.29%
- GSNO purity (decrease % of control) ([5]; 35 kGy, <27.5 °C): −1.12%
- GSSH impurity (% unit change) ([5]; 35 kGy, <27.5 °C): 0.23%
- Total impurities (% unit changes) ([5]; 35 kGy, <27.5 °C): 1.08%
- GSH impurity (% unit change) ([5]; 35 kGy, −80 °C): 0.23%
- GSNO purity (decrease % of control) ([5]; 35 kGy, −80 °C): −0.55%
- GSSH impurity (% unit change) ([5]; 35 kGy, −80 °C): 0.07%
- Total impurities (% unit changes) ([5]; 35 kGy, −80 °C): 0.54%
- GSH impurity (% unit change) ([6]; 15 kGy, 8-10 hours, <40 °C): 0.34%
- GSNO purity (decrease % of control) ([6]; 15 kGy, 8-10 hours, <40 °C): −4.47%
- GSSH impurity (% unit change) ([6]; 15 kGy, 8-10 hours, <40 °C): 1.25%
- Total impurities (% unit changes) ([6]; 15 kGy, 8-10 hours, <40 °C): 4.25%
- GSH impurity (% unit change) ([6]; 35 kGy, 18-24 hours, <60 °C): 0.15%
- GSNO purity (decrease % of control) ([6]; 35 kGy, 18-24 hours, <60 °C): −9.45%
- GSSH impurity (% unit change) ([6]; 35 kGy, 18-24 hours, <60 °C): 6.63%
- Total impurities (% unit changes) ([6]; 35 kGy, 18-24 hours, <60 °C): 9.12%
Structure (SMILES): N[C@@H](CCC(=O)N[C@@H](CSN=O)C(=O)NCC(=O)O)C(=O)O [GSNO, S-nitrosoglutathione]
- initial S-nitrosoglutathione present after storage [1]: about 85%
- time reported to be stable on storage ([3]; solid prepared by a specific method, further controlled air, radiation and temperature conditions (Looker et al., 2008; WO 2008/153762)): 9 months
- time reported to be stable on storage ([3]; solid, inert atmosphere (argon and nitrogen), −20 °C, in the dark (Parent et al., 2013)): 6 months
